Source: PubChem BioAssay AID1963427 (Molecular Pharmacology Branch, DTP, NCI, 2024)

System: 317291-083-R-J1-PDC complex spheroid growth
Assay: Anticancer human tumor 317291-083-R-J1-PDC patient-derived soft tissue sarcoma cell line growth inhibition [Asc]
Conditions: for IC50: curve of first compound; for viability, T/C: stronger effect = lower value; active = viability on the fitted dose curve at most 10% of control; inactive = the rest
In short: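 Tumor cells were grown as multicellular spheroids with stromal HUVEC and mesenchymal stem cells and treated singly or in combination. Concentrations fell in half-log steps from the clinical Cmax, or from 10 microM where none was known.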
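Also: compound exposure lasted seven days after spheroids formed for three days.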
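For viability, T/C in this document: 100% = DMSO vehicle control wells.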

Cc1nc(N2CCC3(CC2)COC(C)C3N)c(CO)nc1Sc1ccnc(N)c1Cl (configuration not stated) + Cc1c(S(C)(=O)=O)c(-c2cc(F)cc(N3CCN(c4ccc(NS(=O)(=O)c5ccc(NC(CCN6CCC(C(=O)OCCCP(=O)(O)O)CC6)CSc6ccccc6)c(S(=O)(=O)C(F)(F)F)c5)cc4)CC3)c2)c(-c2ccc(Cl)cc2)n1C(C)C
469 nM: IC50 (second compound 3.16 µM)
600 nM: IC50 (second compound 1 µM)
1960 nM: IC50 (second compound 0.0316 µM)
946 nM: IC50 (second compound 0.316 µM)
2540 nM: IC50 (second compound 0.1 µM)
992 nM: IC50 (second compound 10 µM)
inactive: viability, T/C (second compound 0.0316 µM, first compound 0.00949 µM) 96.4% | viability, T/C (second compound 0.0316 µM, first compound 0.03 µM) 77.5% | viability, T/C (second compound 0.0316 µM, first compound 0.0949 µM) 98.4% | viability, T/C (second compound 0.0316 µM, first compound 0.3 µM) 82.8% | viability, T/C (second compound 0.0316 µM, first compound 0.949 µM) 61.3% | viability, T/C (second compound 0.0316 µM, first compound 3 µM) 43.5% | viability, T/C (second compound 0.1 µM, first compound 0.00949 µM) 98.1% | viability, T/C (second compound 0.1 µM, first compound 0.03 µM) 92.1% | viability, T/C (second compound 0.1 µM, first compound 0.0949 µM) 81.9% | viability, T/C (second compound 0.1 µM, first compound 0.3 µM) 69.8% | viability, T/C (second compound 0.1 µM, first compound 0.949 µM) 51.3% | viability, T/C (second compound 0.1 µM, first compound 3 µM) 51% | viability, T/C (second compound 0.316 µM, first compound 0.00949 µM) 88.3% | viability, T/C (second compound 0.316 µM, first compound 0.03 µM) 91.3% | viability, T/C (second compound 0.316 µM, first compound 0.0949 µM) 74.4% | viability, T/C (second compound 0.316 µM, first compound 0.3 µM) 63.9% | viability, T/C (second compound 0.316 µM, first compound 0.949 µM) 52.2% | viability, T/C (second compound 0.316 µM, first compound 3 µM) 29.9% | viability, T/C (second compound 1 µM, first compound 0.00949 µM) 93.7% | viability, T/C (second compound 1 µM, first compound 0.03 µM) 73.2% | viability, T/C (second compound 1 µM, first compound 0.0949 µM) 68.8% | viability, T/C (second compound 1 µM, first compound 0.3 µM) 63.1% | viability, T/C (second compound 1 µM, first compound 0.949 µM) 39.2% | viability, T/C (second compound 1 µM, first compound 3 µM) 37.9% | viability, T/C (second compound 3.16 µM, first compound 0.00949 µM) 86.5% | viability, T/C (second compound 3.16 µM, first compound 0.03 µM) 69.8% | viability, T/C (second compound 3.16 µM, first compound 0.0949 µM) 66.2% | viability, T/C (second compound 3.16 µM, first compound 0.3 µM) 58.6% | viability, T/C (second compound 3.16 µM, first compound 0.949 µM) 42.2% | viability, T/C (second compound 3.16 µM, first compound 3 µM) 20.4% | viability, T/C (second compound 10 µM, first compound 0.00949 µM) 86.5% | viability, T/C (second compound 10 µM, first compound 0.03 µM) 87.3% | viability, T/C (second compound 10 µM, first compound 0.0949 µM) 81.7% | viability, T/C (second compound 10 µM, first compound 0.3 µM) 67.5% | viability, T/C (second compound 10 µM, first compound 0.949 µM) 52% | viability, T/C (second compound 10 µM, first compound 3 µM) 26.7%
